Laboratory results as given in PMC8041193 (PLoS ONE, 2021).
Ends that are not written are not given here.

Tests used:
[1] = Non compartmental pharmacokinetic analysis of LA in porcine intestinal fluid; format: in vivo; settings: pig intestinal fluid, oral LA 1 mg total (~0.05 mg/kg)
Procedure: Non compartmental pharmacokinetic analyses of LA in the intestinal fluid was performed using commercially available software (Phoenix® WinNonlin® Software version 8.3, Certara, Princeton, NJ). The pharmacokinetic parameters estimated for LA in intestinal fluid after oral administration included the elimination rate constant (λz), elimination half life (HLλz), the area under the curve from time zero to the last time point (AUClast), the maximum concentration (Cmax), time to maximum concentration (Tmax), the mean drug residence time from time zero to the last time point (MRTlast), which were calculated using the linear log trapezoidal method.

[2] = cited from earlier work
Source text: In vitro dissolution is the standard method used in the pharmaceutical industry to assess drug release from solid oral dosage forms and to predict the release profile in the GI tract by simulating the GI environment with appropriate buffer media. In vivo/ in vitro correlation analysis (IVIVC) was specifically designed to assess whether in vitro predictions match in vivo drug behavior. However, in this study IVIVC could not be performed for several reasons, including the lack of an injectable formulation, an immediate release and other multiple other extended release formulations and the ...

[3] = LA concentration in porcine intestinal fluid collected via in vivo ultrafiltration probes, UPLC-MS/MS; settings: pig; for level at time molar at 1 h / level at time molar at 2 h / level at time molar at 3 h / level at time molar at 4 h: female, Yorkshire cross, po, 1 mg; for Concentration of LA fragments in duodenal and jejunal samples: oral 1 mg LA, fragments detected, all concentrations below the LLOQ, UPLC-MS/MS;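 as to all read-outs here: pigs aged 6–8 weeks and weighing 15–20 kg, intestinal fluid sampled through surgically implanted ultrafiltration probes whose placement was checked post mortem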
Procedure: Three female Yorkshire cross pigs weighing between 15–20 kg and 6–8 weeks of age were used in this study. […] All pigs were considered healthy on the basis of physical exams, which were performed upon delivery and after a minimum of 3 days’ acclimatization. The animals were housed individually in stainless steel pens to allow comprehensive observation of changes to the animal’s behavior, feed consumption, and volume or character of excreta. While housed in pens, each animal had free access to water, and commercial pig pelleted feed was provided twice daily.
Pigs were sedated with injection of ketamine (11 mg/kg, IM; Vedco) and xylazine (0.25 mg/kg, IM; Akorn Animal Health). Intravenous administration of buprenorphine (0.04 mg/kg; Par Pharmaceutical) and intramuscular administration of flunixin meglumine (2.2 mg/kg; Norbrook) and ceftiofur sodium (Excede for Swine, 8mg/kg; Med Pharmex Inc) were given for analgesia and infection prophylaxis, respectively. Pigs were intubated and maintained under general anesthesia using isoflurane delivered in 100% oxygen during the surgery. The abdomen was approached via midline laparotomy, and the pylorus was located. The duodenum was traced from the pylorus to an accessible point on the left side of the abdomen approximately 15–18 cm distal to the pylorus (Fig 2). The intestine was lifted and an incision was made using a #11 scalpel blade, piercing the anti-mesenteric intestinal wall into the lumen. A guide needle was used to introduce the UF probe into the duodenum threading the probe proximally toward the pylorus. The guide needle was subsequently removed, taking care to leave the UF probe in place [20]. The three loops of the UF probe remained within the intestine, and each probe was secured in the intestine by using a Halstead pattern suture around the probe, followed by a finger trap suture pattern using 3–0 Vicryl (Henry Schein). The nonpermeable connection tubing of the UF probe was extended to the lateral body wall, paramedian to the incision, and retrieved through a guide needle in order to exteriorize the tubing. The tubing was secured outside the animal by suturing the tubing to the skin using 3–0 nylon suture (Fig 3). The tubing was attached to a needle inserted into a vacutainer for sample collection during the remainder of the experiment. A second UF probe was placed into the jejunum 20 cm distal to the duodenum using the same methodology (Fig 2). The abdomen was closed in a routine manner. The pigs were monitored for assessment of pain each day of the experiment and given buprenorphine as an analgesic medication if necessary.
The formulated beads were weighed and placed into gelatin capsules prior to dosing.

[4] = distal duodenum, mean of 3 dose replicates
[5] = proximal jejunum, mean of 3 dose replicates
[6] = intestinal fluid (distal duodenum)
[7] = intestinal fluid (proximal jejunum)
[8] = intestinal fluid, distal duodenum
[9] = intestinal fluid, proximal jejunum

GGVLVQPG [LA, Larazotide acetate]
MRTlast, mean residence time from time zero to the last time point ([1]; distal duodenum, dose replicate # 1): 1.58 h | MRTlast, mean residence time from time zero to the last time point ([1]; distal duodenum, dose replicate # 2): 1.42 h | MRTlast, mean residence time from time zero to the last time point ([1]; distal duodenum, dose replicate # 3): 1.65 h | AUClast, area under the curve from time zero to the last time point [1, 4]: 770 ng·h/mL | Cmax, maximum concentration [1, 4]: 530 ng/mL | HLλz, elimination half life [1, 4]: 0.65 h | MRTlast, mean residence time from time zero to the last time point [1, 4]: 1.55 h | Tmax, time to the maximum concentration [1, 4]: 1 h | Λz, elimination rate constant [1, 4]: 1.14 h⁻¹ | MRTlast, mean residence time from time zero to the last time point ([1]; proximal jejunum, dose replicate # 1): 1.31 h | MRTlast, mean residence time from time zero to the last time point ([1]; proximal jejunum, dose replicate # 2): 1.26 h | MRTlast, mean residence time from time zero to the last time point ([1]; proximal jejunum, dose replicate # 3): 1.53 h | AUClast, area under the curve from time zero to the last time point [1, 5]: 910 ng·h/mL | Cmax, maximum concentration [1, 5]: 780 ng/mL | HLλz, elimination half life [1, 5]: 0.76 h | MRTlast, mean residence time from time zero to the last time point [1, 5]: 1.37 h | Tmax, time to the maximum concentration [1, 5]: 1 h | Λz, elimination rate constant [1, 5]: 1.0 h⁻¹ | Concentrations in human plasma ([2]; all groups administered 0.25, 1, 4 and 8 mg LA, below the LOQ): < 0.5 ng/mL | Plasma concentrations ([2]; human plasma, oral LA (12mg), HPLC-MS/MS, all below LLOQ): < 0.5 ng/mL | level at time molar at 1 h [3, 6]: 0.74 ± 0.3 µM | level at time molar at 2 h [3, 6]: 0.27 ± 0.14 µM | level at time molar at 3 h [3, 6]: 0.12 ± 0.09 µM | level at time molar at 4 h [3, 6]: 0.03 ± 0.01 µM | level at time molar at 1 h [3, 7]: 1.1 ± 0.48 µM | level at time molar at 2 h [3, 7]: 0.25 ± 0.13 µM | level at time molar at 3 h [3, 7]: 0.09 ± 0.1 µM | level at time molar at 4 h [3, 7]: 0.03 ± 0.04 µM | level at time molar at 1 h [3, 8]: 0.74 µM | level at time molar at 2 h [3, 8]: 0.27 µM | level at time molar at 3 h [3, 8]: 0.12 µM | level at time molar at 4 h [3, 8]: 0.03 µM | level at time molar at 1 h ([3]; intestinal fluid, distal duodenum, LA concentration (µM), oral 1 mg LA human clinical formulation, 1h, case number 1, single measurement): 0.32 µM | level at time molar at 1 h ([3]; intestinal fluid, distal duodenum, LA concentration (µM), oral 1 mg LA human clinical formulation, 1h, case number 2, single measurement): 0.98 µM | level at time molar at 1 h ([3]; intestinal fluid, distal duodenum, LA concentration (µM), oral 1 mg LA human clinical formulation, 1h, case number 3, single measurement): 0.93 µM | level at time molar at 2 h ([3]; intestinal fluid, distal duodenum, LA concentration (µM), oral 1 mg LA human clinical formulation, 2h, case number 1, single measurement): 0.14 µM | level at time molar at 2 h ([3]; intestinal fluid, distal duodenum, LA concentration (µM), oral 1 mg LA human clinical formulation, 2h, case number 2, single measurement): 0.21 µM | level at time molar at 2 h ([3]; intestinal fluid, distal duodenum, LA concentration (µM), oral 1 mg LA human clinical formulation, 2h, case number 3, single measurement): 0.47 µM | level at time molar at 3 h ([3]; intestinal fluid, distal duodenum, LA concentration (µM), oral 1 mg LA human clinical formulation, 3h, case number 1, single measurement): 0.03 µM | level at time molar at 3 h ([3]; intestinal fluid, distal duodenum, LA concentration (µM), oral 1 mg LA human clinical formulation, 3h, case number 2, single measurement): 0.09 µM | level at time molar at 3 h ([3]; intestinal fluid, distal duodenum, LA concentration (µM), oral 1 mg LA human clinical formulation, 3h, case number 3, single measurement): 0.25 µM | level at time molar at 4 h ([3]; intestinal fluid, distal duodenum, LA concentration (µM), oral 1 mg LA human clinical formulation, 4h, case number 1, single measurement): 0.03 µM | level at time molar at 4 h ([3]; intestinal fluid, distal duodenum, LA concentration (µM), oral 1 mg LA human clinical formulation, 4h, case number 2, single measurement): 0.02 µM | level at time molar at 4 h ([3]; intestinal fluid, distal duodenum, LA concentration (µM), oral 1 mg LA human clinical formulation, 4h, case number 3, single measurement): 0.03 µM | level at time molar at 1 h [3, 9]: 1.1 µM | level at time molar at 2 h [3, 9]: 0.25 µM | level at time molar at 3 h [3, 9]: 0.09 µM | level at time molar at 4 h [3, 9]: 0.03 µM | level at time molar at 1 h ([3]; intestinal fluid, proximal jejunum, LA concentration (µM), oral 1 mg LA human clinical formulation, 1h, case number 1, single measurement): 0.65 µM | level at time molar at 1 h ([3]; intestinal fluid, proximal jejunum, LA concentration (µM), oral 1 mg LA human clinical formulation, 1h, case number 2, single measurement): 1.76 µM | level at time molar at 1 h ([3]; intestinal fluid, proximal jejunum, LA concentration (µM), oral 1 mg LA human clinical formulation, 1h, case number 3, single measurement): 0.88 µM | level at time molar at 2 h ([3]; intestinal fluid, proximal jejunum, LA concentration (µM), oral 1 mg LA human clinical formulation, 2h, case number 1, single measurement): 0.13 µM | level at time molar at 2 h ([3]; intestinal fluid, proximal jejunum, LA concentration (µM), oral 1 mg LA human clinical formulation, 2h, case number 2, single measurement): 0.18 µM | level at time molar at 2 h ([3]; intestinal fluid, proximal jejunum, LA concentration (µM), oral 1 mg LA human clinical formulation, 2h, case number 3, single measurement): 0.43 µM | level at time molar at 3 h ([3]; intestinal fluid, proximal jejunum, LA concentration (µM), oral 1 mg LA human clinical formulation, 3h, case number 1, single measurement): 0.04 µM | level at time molar at 3 h ([3]; intestinal fluid, proximal jejunum, LA concentration (µM), oral 1 mg LA human clinical formulation, 3h, case number 3, single measurement): 0.22 µM | level at time molar at 4 h ([3]; intestinal fluid, proximal jejunum, LA concentration (µM), oral 1 mg LA human clinical formulation, 4h, case number 2, single measurement): 0.09 µM | Continued presence of LA, concentration in proximal jejunum ([3]; fasted, oral 1 mg LA clinical formulation, proximal jejunum, 2–4 hours, range of individual samples): 0.00 to 0.43 µM | LA concentration ([3]; oral 1 mg LA human clinical formulation, proximal jejunum, 0h, case number 2, single measurement): 0.00 µM | LA concentration ([3]; oral 1 mg LA human clinical formulation, proximal jejunum, 0h, case number 3, single measurement): 0.00 µM | LA concentration ([3]; oral 1 mg LA human clinical formulation, proximal jejunum, 3h, case number 2, single measurement, below LOD reported as zero): 0.00 µM | LA concentration ([3]; oral 1 mg LA human clinical formulation, proximal jejunum, 4h, case number 1, single measurement, below LOD reported as zero): 0.00 µM | LA concentration ([3]; oral 1 mg LA human clinical formulation, proximal jejunum, 4h, case number 3, single measurement, below LOD reported as zero): 0.00 µM

H-GGVLVQP-OH [Fragment 3]
Concentration of LA fragments in duodenal and jejunal samples [3]: < 150 nM

H-GVLVQPG-OH [Fragment 1]
Concentration of LA fragments in duodenal and jejunal samples [3]: < 150 nM

H-VLVQPG-OH [Fragment 2]
Concentration of LA fragments in duodenal and jejunal samples [3]: < 160 nM

H-Val-Leu-Val-Gln-Pro-OH [Fragment 4]
Concentration of LA fragments in duodenal and jejunal samples [3]: < 170 nM
